{
  "source": "PubChem BioAssay (NCI)",
  "assay_in_all_cases": "NCI tumour cell line growth inhibition, 48 h",
  "key": {"786-0 renal": {"tested_on": "786-0 renal"}, "A498 renal": {"tested_on": "A498 renal"}, "A549 NSCLC": {"tested_on": "A549 NSCLC"}, "ACHN renal": {"tested_on": "ACHN renal"}, "BT-549 breast": {"tested_on": "BT-549 breast"}, "CAKI-1 renal": {"tested_on": "CAKI-1 renal"}, "CCRF-CEM leukemia": {"tested_on": "CCRF-CEM leukemia"}, "COLO 205 colon": {"tested_on": "COLO 205 colon"}, "DU-145 prostate": {"tested_on": "DU-145 prostate"}, "EKVX NSCLC": {"tested_on": "EKVX NSCLC"}, "HCC-2998 colon": {"tested_on": "HCC-2998 colon"}, "HCT-116 colon": {"tested_on": "HCT-116 colon"}, "HCT-15 colon": {"tested_on": "HCT-15 colon"}, "HL-60(TB) leukemia": {"tested_on": "HL-60(TB) leukemia"}, "HOP-62 NSCLC": {"tested_on": "HOP-62 NSCLC"}, "HOP-92 NSCLC": {"tested_on": "HOP-92 NSCLC"}, "HS 578T breast": {"tested_on": "HS 578T breast"}, "HT29 colon": {"tested_on": "HT29 colon"}, "IGROV1 ovarian": {"tested_on": "IGROV1 ovarian"}, "K-562 leukemia": {"tested_on": "K-562 leukemia"}, "KM12 colon": {"tested_on": "KM12 colon"}, "LOX IMVI melanoma": {"tested_on": "LOX IMVI melanoma"}, "M14 melanoma": {"tested_on": "M14 melanoma"}, "MALME-3M melanoma": {"tested_on": "MALME-3M melanoma"}, "MCF7 breast": {"tested_on": "MCF7 breast"}, "MDA-MB-231 breast": {"tested_on": "MDA-MB-231 breast"}, "MDA-MB-435": {"tested_on": "MDA-MB-435"}, "MOLT-4 leukemia": {"tested_on": "MOLT-4 leukemia"}, "NCI-H226 lung": {"tested_on": "NCI-H226 lung"}},
  "note": "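Protocol summary: plate cells (96-well), add compound at 5 concentrations, incubate 48 h, interpolate endpoints linearly. The concentration for 50% growth inhibition is given as GI50. TGI is the concentration that stops growth completely.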",
  "data": [
    {"smiles": "O=C(N/N=C/c1ccc([N+](=O)[O-])o1)c1[nH]c2ccc(Br)cc2c1-c1ccccc1", "values": [
      {"measurement": "GI50", "setting": "786-0 renal", "value": 367, "unit": "nM"},
      {"measurement": "TGI", "setting": "786-0 renal", "value": 4750, "unit": "nM"},
      {"measurement": "GI50", "setting": "A498 renal", "value": 7450, "unit": "nM"},
      {"measurement": "TGI", "setting": "A498 renal", "value": 24400, "unit": "nM"},
      {"measurement": "GI50", "setting": "A549 NSCLC", "value": 354, "unit": "nM"},
      {"measurement": "TGI", "setting": "A549 NSCLC", "value": 11800, "unit": "nM"},
      {"measurement": "GI50", "setting": "ACHN renal", "value": 379, "unit": "nM"},
      {"measurement": "TGI", "setting": "ACHN renal", "value": 6110, "unit": "nM"},
      {"measurement": "GI50", "setting": "BT-549 breast", "value": 222, "unit": "nM"},
      {"measurement": "TGI", "setting": "BT-549 breast", "value": 694, "unit": "nM"},
      {"measurement": "GI50", "setting": "CAKI-1 renal", "value": 382, "unit": "nM"},
      {"measurement": "TGI", "setting": "CAKI-1 renal", "value": 9370, "unit": "nM"},
      {"measurement": "GI50", "setting": "CCRF-CEM leukemia", "value": 414, "unit": "nM"},
      {"measurement": "TGI", "setting": "CCRF-CEM leukemia", "value": 45800, "unit": "nM"},
      {"measurement": "GI50", "setting": "COLO 205 colon", "value": 244, "unit": "nM"},
      {"measurement": "TGI", "setting": "COLO 205 colon", "value": 577, "unit": "nM"},
      {"measurement": "GI50", "setting": "DU-145 prostate", "value": 406, "unit": "nM"},
      {"measurement": "TGI", "setting": "DU-145 prostate", "value": 12200, "unit": "nM"},
      {"measurement": "GI50", "setting": "EKVX NSCLC", "value": 1120, "unit": "nM"},
      {"measurement": "TGI", "setting": "EKVX NSCLC", "value": 9140, "unit": "nM"},
      {"measurement": "GI50", "setting": "HCC-2998 colon", "value": 367, "unit": "nM"},
      {"measurement": "TGI", "setting": "HCC-2998 colon", "value": 1600, "unit": "nM"},
      {"measurement": "GI50", "setting": "HCT-116 colon", "value": 182, "unit": "nM"},
      {"measurement": "TGI", "setting": "HCT-116 colon", "value": 980, "unit": "nM"},
      {"measurement": "GI50", "setting": "HCT-15 colon", "value": 230, "unit": "nM"},
      {"measurement": "TGI", "setting": "HCT-15 colon", "value": 987, "unit": "nM"},
      {"measurement": "GI50", "setting": "HL-60(TB) leukemia", "value": 235, "unit": "nM"},
      {"measurement": "TGI", "setting": "HL-60(TB) leukemia", "value": 626, "unit": "nM"},
      {"measurement": "GI50", "setting": "HOP-62 NSCLC", "value": 541, "unit": "nM"},
      {"measurement": "TGI", "setting": "HOP-62 NSCLC", "value": 5360, "unit": "nM"},
      {"measurement": "GI50", "setting": "HOP-92 NSCLC", "value": 733, "unit": "nM"},
      {"measurement": "TGI", "setting": "HOP-92 NSCLC", "value": 4390, "unit": "nM"},
      {"measurement": "GI50", "setting": "HS 578T breast", "value": 519, "unit": "nM"},
      {"measurement": "TGI", "setting": "HS 578T breast", "value": 14600, "unit": "nM"},
      {"measurement": "GI50", "setting": "HT29 colon", "value": 307, "unit": "nM"},
      {"measurement": "TGI", "setting": "HT29 colon", "value": 1270, "unit": "nM"},
      {"measurement": "GI50", "setting": "IGROV1 ovarian", "value": 340, "unit": "nM"},
      {"measurement": "TGI", "setting": "IGROV1 ovarian", "value": 10900, "unit": "nM"},
      {"measurement": "GI50", "setting": "K-562 leukemia", "value": 118, "unit": "nM"},
      {"measurement": "TGI", "setting": "K-562 leukemia", "value": "> 100000", "unit": "nM"},
      {"measurement": "GI50", "setting": "KM12 colon", "value": 410, "unit": "nM"},
      {"measurement": "TGI", "setting": "KM12 colon", "value": 11600, "unit": "nM"},
      {"measurement": "GI50", "setting": "LOX IMVI melanoma", "value": 190, "unit": "nM"},
      {"measurement": "TGI", "setting": "LOX IMVI melanoma", "value": 1610, "unit": "nM"},
      {"measurement": "GI50", "setting": "M14 melanoma", "value": 274, "unit": "nM"},
      {"measurement": "TGI", "setting": "M14 melanoma", "value": 1160, "unit": "nM"},
      {"measurement": "GI50", "setting": "MALME-3M melanoma", "value": 682, "unit": "nM"},
      {"measurement": "TGI", "setting": "MALME-3M melanoma", "value": 3320, "unit": "nM"},
      {"measurement": "GI50", "setting": "MCF7 breast", "value": 110, "unit": "nM"},
      {"measurement": "TGI", "setting": "MCF7 breast", "value": 5530, "unit": "nM"},
      {"measurement": "GI50", "setting": "MDA-MB-231 breast", "value": 288, "unit": "nM"},
      {"measurement": "TGI", "setting": "MDA-MB-231 breast", "value": 1050, "unit": "nM"},
      {"measurement": "GI50", "setting": "MDA-MB-435", "value": 111, "unit": "nM"},
      {"measurement": "TGI", "setting": "MDA-MB-435", "value": 293, "unit": "nM"},
      {"measurement": "GI50", "setting": "MOLT-4 leukemia", "value": 356, "unit": "nM"},
      {"measurement": "TGI", "setting": "MOLT-4 leukemia", "value": 10600, "unit": "nM"},
      {"measurement": "GI50", "setting": "NCI-H226 lung", "value": 306, "unit": "nM"},
      {"measurement": "TGI", "setting": "NCI-H226 lung", "value": 1560, "unit": "nM"}
    ]}
  ]
}
